Test results published in patent US6696064B2 (priority 2000, dated 2004).

Tests used:
healthy volunteers = conditions: 300 mg single dose i.v. infusion, eleven healthy volunteers; cited from earlier work
[1] = cited from earlier work
normal rat brain = conditions: in vivo

CCN(CC)CCCC(C)Nc1ccnc2cc(Cl)ccc12 (stereo not drawn) [chloroquine]
effects on the electrocardiogram, mean arterial blood pressure, or pulse rate (healthy volunteers): no effects were seen | side effects during i.v. infusion (healthy volunteers): only of subjective side effects | time to maximum blood levels ([1]; after oral administration): 3 to 5 h | amounts deposited in brain, times smaller than in other body tissues ([1]; in vivo): 7 to 70 times | effect of chloroquine on histological brain damage in rats that received DT (normal rat brain): did not reduce the histological rain damage | effect of systemic chloroquine on brain damage caused by Tf-CRM107 (normal rat brain): completely blocked the brain damage
